In ChEMBL document CHEMBL1201861, “Genomics of Drug Sensitity in Cancer screening data, Wellcome Trust Sanger Institute”:

Assays:
Assay in all cases: cells
Assay type in all cases: functional, cell-based, Homo sapiens
[1] = test system: COLO-824; settings: Homo sapiens, COLO-824
Description: SANGER: Inhibition of human COLO-824 cell growth in a cell viability assay.

[2] = test system: Ca-Ski; settings: Homo sapiens, Ca-Ski;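 also: cell viability assay measuring inhibition of Ca-Ski cell growth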
Description: SANGER: Inhibition of human Ca-Ski cell growth in a cell viability assay.

[3] = test system: DU-4475; settings: Homo sapiens, DU-4475
Description: SANGER: Inhibition of human DU-4475 cell growth in a cell viability assay.

[4] = test system: EFO-27; settings: Homo sapiens, EFO-27;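 also: growth inhibition of EFO-27 cells, read out with a cell viability assay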
Description: SANGER: Inhibition of human EFO-27 cell growth in a cell viability assay.

[5] = test system: ES1; settings: Homo sapiens, ES1;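 also: growth inhibition of ES1 cells, read out with a cell viability assay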
Description: SANGER: Inhibition of human ES1 cell growth in a cell viability assay.

[6] = test system: ES3; settings: Homo sapiens, ES3;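 also: growth inhibition of ES3 cells, read out with a cell viability assay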
Description: SANGER: Inhibition of human ES3 cell growth in a cell viability assay.

[7] = test system: G-401; settings: Homo sapiens, G-401
Description: SANGER: Inhibition of human G-401 cell growth in a cell viability assay.

[8] = test system: HCC2218; settings: Homo sapiens, HCC2218;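 also: cell viability assay read-out, with IC50 given as the concentration that inhibits growth of the cell line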
Description: SANGER: Inhibition of human HCC2218 cell growth in a cell viability assay.

[9] = test system: HCC38; settings: Homo sapiens, HCC38;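 also: cell viability assay on the human HCC38 cell line, with IC50 marking the concentration that inhibits cell growth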
Description: SANGER: Inhibition of human HCC38 cell growth in a cell viability assay.

[10] = test system: HL-60; settings: Homo sapiens, HL-60;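 also: growth inhibition of human HL-60 cells, read out with a cell viability assay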
Description: SANGER: Inhibition of human HL-60 cell growth in a cell viability assay.

[11] = test system: HOS; settings: Homo sapiens, HOS;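 also: growth inhibition of human HOS cells, read out with a cell viability assay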
Description: SANGER: Inhibition of human HOS cell growth in a cell viability assay.

[12] = test system: JEG-3; settings: Homo sapiens, JEG-3;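 also: growth inhibition of human JEG-3 cells, read out with a cell viability assay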
Description: SANGER: Inhibition of human JEG-3 cell growth in a cell viability assay.

[13] = test system: KYSE-180; settings: Homo sapiens, KYSE-180;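 also: growth inhibition of KYSE-180 cells, read out with a cell viability assay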
Description: SANGER: Inhibition of human KYSE-180 cell growth in a cell viability assay.

[14] = test system: LAMA-84; settings: Homo sapiens, LAMA-84;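 also: growth inhibition of LAMA-84 cells, read out with a cell viability assay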
Description: SANGER: Inhibition of human LAMA-84 cell growth in a cell viability assay.

[15] = test system: LB996-RCC; settings: Homo sapiens, LB996-RCC
Description: SANGER: Inhibition of human LB996-RCC cell growth in a cell viability assay.

[16] = test system: Lu-65; settings: Homo sapiens, Lu-65;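 also: growth inhibition of Lu-65 cancer cells, read out by a cell viability assay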
Description: SANGER: Inhibition of human LU-65 cell growth in a cell viability assay.

[17] = test system: MDA-MB-231; settings: Homo sapiens, MDA-MB-231
Description: SANGER: Inhibition of human MDA-MB-231 cell growth in a cell viability assay.

[18] = test system: MEL-HO; settings: Homo sapiens, MEL-HO
Description: SANGER: Inhibition of human MEL-HO cell growth in a cell viability assay.

[19] = test system: MKN-1; settings: Homo sapiens, MKN-1;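 also: growth inhibition of human MKN1 cells, read out by a cell viability measurement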
Description: SANGER: Inhibition of human MKN1 cell growth in a cell viability assay.

[20] = test system: MZ1-PC; settings: Homo sapiens, MZ1-PC;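 also: cell viability assay measuring growth inhibition of human MZ1-PC cells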
Description: SANGER: Inhibition of human MZ1-PC cell growth in a cell viability assay.

[21] = test system: NB6; settings: Homo sapiens, NB6;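 also: growth inhibition of NB6 cells, read out by a cell viability assay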
Description: SANGER: Inhibition of human NB6 cell growth in a cell viability assay.

[22] = test system: NB69; settings: Homo sapiens, NB69;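 also: growth inhibition of NB69 cells, determined by a cell viability assay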
Description: SANGER: Inhibition of human NB69 cell growth in a cell viability assay.

[23] = test system: NCI-H1755; settings: Homo sapiens, NCI-H1755;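 also: cell viability readout used to measure growth inhibition of NCI-H1755 cells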
Description: SANGER: Inhibition of human NCI-H1755 cell growth in a cell viability assay.

[24] = test system: NCI-H2087; settings: Homo sapiens, NCI-H2087;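 also: growth inhibition determined with a cell viability readout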
Description: SANGER: Inhibition of human NCI-H2087 cell growth in a cell viability assay.

[25] = test system: NCI-H520; settings: Homo sapiens, NCI-H520;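 also: growth inhibition of NCI-H520 cells, measured by a cell viability assay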
Description: SANGER: Inhibition of human NCI-H520 cell growth in a cell viability assay.

[26] = test system: PFSK-1; settings: Homo sapiens, PFSK-1;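 also: cell viability assay measuring how strongly compounds suppress growth of human PFSK-1 cells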
Description: SANGER: Inhibition of human PFSK-1 cell growth in a cell viability assay.

[27] = test system: RD; settings: Homo sapiens, RD
Description: SANGER: Inhibition of human RD cell growth in a cell viability assay.

[28] = test system: RO82-W-1; settings: Homo sapiens, RO82-W-1;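 also: growth inhibition of human RO82-W-1 cells, measured with a cell viability assay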
Description: SANGER: Inhibition of human RO82-W-1 cell growth in a cell viability assay.

[29] = test system: RPMI-8226; settings: Homo sapiens, RPMI-8226
Description: SANGER: Inhibition of human RPMI-8226 cell growth in a cell viability assay.

[30] = test system: S-117; settings: Homo sapiens, S-117
Description: SANGER: Inhibition of human S-117 cell growth in a cell viability assay.

[31] = test system: SF-295; settings: Homo sapiens, SF-295;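 also: growth inhibition of SF-295 cells, read out with a cell viability assay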
Description: SANGER: Inhibition of human SF295 cell growth in a cell viability assay.

[32] = test system: SH-4; settings: Homo sapiens, SH-4;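 also: growth inhibition of SH-4 cells, read out with a cell viability assay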
Description: SANGER: Inhibition of human SH-4 cell growth in a cell viability assay.

[33] = test system: SNU-387; settings: Homo sapiens, SNU-387
Description: SANGER: Inhibition of human SNU-387 cell growth in a cell viability assay.

[34] = test system: SW48; settings: Homo sapiens, SW48;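 also: growth inhibition of SW48 cells, read out with a cell viability assay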
Description: SANGER: Inhibition of human SW48 cell growth in a cell viability assay.

[35] = test system: SW-620; settings: Homo sapiens, SW-620;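 also: growth inhibition of human SW-620 cells, measured by a cell viability assay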
Description: SANGER: Inhibition of human SW620 cell growth in a cell viability assay.

[36] = test system: 647-V; settings: Homo sapiens, 647-V;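 also: growth inhibition of 647-V cells, read out with a cell viability assay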
Description: SANGER: Inhibition of human 647-V cell growth in a cell viability assay.

[37] = test system: BHT-101; settings: Homo sapiens, BHT-101
Description: SANGER: Inhibition of human BHT-101 cell growth in a cell viability assay.

[38] = test system: C2BBe1; settings: Homo sapiens, C2BBe1;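 also: growth inhibition of C2BBe1 cells, read out through a viability assay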
Description: SANGER: Inhibition of human C2BBe1 cell growth in a cell viability assay.

[39] = test system: CAL-120; settings: Homo sapiens, CAL-120;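 also: cell growth inhibition, read out as cell viability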
Description: SANGER: Inhibition of human CAL-120 cell growth in a cell viability assay.

[40] = test system: VM-CUB-1; settings: Homo sapiens, VM-CUB-1;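 also: cell viability assay measuring growth inhibition of the human VM-CUB-1 cell line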
Description: SANGER: Inhibition of human VM-CUB-1 cell growth in a cell viability assay.

[41] = test system: CP66-MEL; settings: Homo sapiens, CP66-MEL;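 also: growth inhibition of CP66-MEL cells determined in a cell viability assay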
Description: SANGER: Inhibition of human CP66-MEL cell growth in a cell viability assay.

`CCN(CC)CCCCNc1ncc2cc(-c3cc(OC)cc(OC)c3)c(NC(=O)NC(C)(C)C)nc2n1` [PD-173074] was tested, and the IC50 [1] was > 2 µM, the IC50 [2] was > 2 µM and the IC50 [3] was > 2 µM. The IC50 [4] was > 2 µM, the IC50 [5] was > 2 µM and the IC50 [6] was > 2 µM. The IC50 [7] was > 2 µM, the IC50 [8] was > 2 µM and the IC50 [9] was > 2 µM. For the same compound, the IC50 [10] was > 2 µM, the IC50 [11] was > 2 µM and the IC50 [12] was > 2 µM. For the same compound, the IC50 [13] was > 2 µM, the IC50 [14] was > 2 µM and the IC50 [15] was > 2 µM. For the same compound, the IC50 [16] was > 2 µM, the IC50 [17] was > 2 µM and the IC50 [18] was > 2 µM. The IC50 [19] was > 2 µM, the IC50 [20] was > 2 µM and the IC50 [21] was > 2 µM. For the same compound, the IC50 [22] was > 2 µM, the IC50 [23] was > 2 µM and the IC50 [24] was > 2 µM. The IC50 [25] was > 2 µM, the IC50 [26] was > 2 µM and the IC50 [27] was > 2 µM. The IC50 [28] was > 2 µM, the IC50 [29] was > 2 µM and the IC50 [30] was > 2 µM. For the same compound, the IC50 [31] was > 2 µM, the IC50 [32] was > 2 µM and the IC50 [33] was > 2 µM. For the same compound, the IC50 [34] was > 2 µM, the IC50 [35] was > 2 µM and the IC50 [36] was > 2 µM. The IC50 [37] was > 2 µM, the IC50 [38] was > 2 µM and the IC50 [39] was > 2 µM. The IC50 [40] was > 2 µM.
With `COc1cc2c(Nc3ccc(NC(=O)c4ccccc4)cc3)ncnc2cc1OCCCN1CCOCC1` the IC50 [1] was > 4 µM, the IC50 [2] was > 4 µM and the IC50 [3] was > 4 µM. The IC50 [4] was > 4 µM, the IC50 [5] was 1.77 µM and the IC50 [6] was 0.473 µM. For the same compound, the IC50 [7] was > 4 µM, the IC50 [8] was > 4 µM and the IC50 [9] was > 4 µM. For the same compound, the IC50 [10] was 2.59 µM, the IC50 [11] was > 4 µM and the IC50 [12] was > 4 µM. For the same compound, the IC50 [13] was > 4 µM, the IC50 [14] was 1.76 µM and the IC50 [15] was > 4 µM. The IC50 [16] was > 4 µM, the IC50 [17] was > 4 µM and the IC50 [18] was > 4 µM. The IC50 [19] was > 4 µM, the IC50 [20] was > 4 µM and the IC50 [21] was > 4 µM. The IC50 [22] was 3.23 µM, the IC50 [23] was > 4 µM and the IC50 [24] was > 4 µM. The IC50 [25] was > 4 µM, the IC50 [26] was > 4 µM and the IC50 [27] was > 4 µM. For the same compound, the IC50 [28] was > 4 µM, the IC50 [29] was > 4 µM and the IC50 [30] was > 4 µM. For the same compound, the IC50 [31] was > 4 µM, the IC50 [32] was > 4 µM and the IC50 [33] was > 4 µM. For the same compound, the IC50 [34] was 1.23 µM, the IC50 [35] was > 4 µM and the IC50 [36] was > 4 µM. For the same compound, the IC50 [37] was > 4 µM, the IC50 [38] was > 4 µM and the IC50 [39] was > 4 µM. For the same compound, the IC50 [40] was 2.63 µM.
With `CC(C)CCN1c2nc(Nc3cc(F)c(O)c(F)c3)ncc2N(C)C(=O)C1C` (stereo unspecified) the IC50 [1] was 4.9 µM, the IC50 [41] was > 5 µM and the IC50 [2] was 3.48 µM. The IC50 [3] was 0.504 µM, the IC50 [4] was > 5 µM and the IC50 [5] was > 5 µM. The IC50 [6] was > 5 µM, the IC50 [7] was > 5 µM and the IC50 [8] was > 5 µM. For the same compound, the IC50 [9] was > 5 µM, the IC50 [10] was 0.884 µM and the IC50 [11] was 4.46 µM. For the same compound, the IC50 [12] was 3.69 µM, the IC50 [13] was > 5 µM and the IC50 [14] was 1.13 µM. The IC50 [15] was > 5 µM, the IC50 [16] was > 5 µM and the IC50 [17] was 4.72 µM. For the same compound, the IC50 [18] was > 5 µM, the IC50 [19] was 3.21 µM and the IC50 [20] was 3.83 µM. For the same compound, the IC50 [21] was 2.46 µM, the IC50 [22] was > 5 µM and the IC50 [23] was > 5 µM. The IC50 [24] was > 5 µM, the IC50 [25] was > 5 µM and the IC50 [26] was > 5 µM. For the same compound, the IC50 [27] was 3.43 µM, the IC50 [28] was > 5 µM and the IC50 [29] was > 5 µM. For the same compound, the IC50 [30] was > 5 µM, the IC50 [31] was > 5 µM and the IC50 [32] was > 5 µM. The IC50 [33] was > 5 µM, the IC50 [34] was 3.43 µM and the IC50 [35] was > 5 µM. The IC50 [36] was > 5 µM, the IC50 [37] was 4.11 µM and the IC50 [38] was > 5 µM. For the same compound, the IC50 [39] was > 5 µM and the IC50 [40] was > 5 µM.
With `CC1(C)CNc2cc(NC(=O)c3cccnc3NCc3ccncc3)ccc21` [MOTESANIB] the IC50 [1] was > 2 µM, the IC50 [2] was > 2 µM and the IC50 [3] was > 2 µM. For the same compound, the IC50 [4] was > 2 µM, the IC50 [5] was > 2 µM and the IC50 [6] was > 2 µM. The IC50 [7] was > 2 µM, the IC50 [8] was > 2 µM and the IC50 [9] was > 2 µM. The IC50 [10] was > 2 µM, the IC50 [11] was > 2 µM and the IC50 [12] was > 2 µM. For the same compound, the IC50 [13] was > 2 µM, the IC50 [14] was > 2 µM and the IC50 [15] was > 2 µM. The IC50 [16] was > 2 µM, the IC50 [17] was > 2 µM and the IC50 [18] was > 2 µM. The IC50 [19] was > 2 µM, the IC50 [20] was > 2 µM and the IC50 [21] was > 2 µM. For the same compound, the IC50 [22] was > 2 µM, the IC50 [23] was > 2 µM and the IC50 [24] was > 2 µM. For the same compound, the IC50 [25] was > 2 µM, the IC50 [26] was > 2 µM and the IC50 [27] was > 2 µM. For the same compound, the IC50 [28] was > 2 µM, the IC50 [29] was > 2 µM and the IC50 [30] was > 2 µM. The IC50 [31] was > 2 µM, the IC50 [32] was > 2 µM and the IC50 [33] was > 2 µM. For the same compound, the IC50 [34] was > 2 µM, the IC50 [35] was > 2 µM and the IC50 [36] was > 2 µM. For the same compound, the IC50 [37] was > 2 µM, the IC50 [38] was > 2 µM and the IC50 [39] was > 2 µM. For the same compound, the IC50 [40] was > 2 µM.
